Experimental data from patent US20210338692A1, “A 19-NOR C3,3-DISUBSTITUTED C21-N-PYRAZOLYL STEROID AND METHODS OF USE THEREOF” (SAGE THERAPEUTICS, INC., priority 2018, published 2021).

Key:
[1] = tested on: synaptic and extrasynaptic GABAA receptors; conditions: cited from earlier work
[2] = tested on: female subjects diagnosed with severe postpartum depression; assay: Placebo-controlled study of Compound 1 in postpartum depression (HAM-D, MADRS, HAM-A, CGI-I); format: in vivo, human; conditions: 30 mg once a day for 15 days
Procedure: Compound 1 was investigated for use in subjects with depression. Female subjects (18-65 years old) diagnosed with severe postpartum depression (PDD) with a HAM-D total score of greater than or equal to 26 at screening and Day 1 were used in the investigation. The subjects were dosed once per day with capsules containing 30 mg of Compound 1. The dose could be adjusted to capsules containing 20 mg of Compound 1 if the 30 mg dose was not tolerated. Subjects not dosed with Compound 1 were dosed with a placebo. In total, 78 subjects were treated with Compound 1 at 30 mg and 73 subjects were treated with placebo.
Assuming a 2-sided test at an alpha level of 0.05, a sample size of approximately 65 evaluable subjects per treatment group provided 90% power to detect a placebo-adjusted treatment difference of approximately 4 points in the primary endpoint, change from baseline in HAM-D total score at Day 15 assuming standard deviation (SD) of 7 points. The change from baseline in the HAM-D total score was analyzed using a mixed effects model for repeated measures (MMRM). The model included the change from baseline at each visit as the dependent variable. The main comparison was (difference in least mean square [LSMEAN]) between Compound 1 Capsules and placebo at the 15-day timepoint. […]

[3] = tested on: subjects with MDD; assay: Earlier clinical studies of Compound 1 in subjects with MDD (Phase 2 study, previous clinical trials)

SMILES: C[C@@]1(O)CC[C@H]2[C@H](CC[C@@H]3[C@@H]2CC[C@]2(C)[C@@H](C(=O)Cn4cc(C#N)cn4)CC[C@@H]32)C1 [Compound 1]
- mode of action at GABAA receptors [1]: positive allosteric modulator of GABAA receptors
- overall efficacy in postpartum depression compared to placebo [2]: effective at treating postpartum depression
- efficacy and tolerability of the dose level ([3]; 30 mg per day, Phase 2 study in subjects with MDD): efficacious and well-tolerated
- subjects with HAM-D score of 16 to 21 among those achieving remission or response at Day 15 ([3]; Day 42): 18.2%
- subjects with HAM-D≥22 among those achieving remission or response at Day 15 ([3]; Day 42): 6.1%
- adverse effect when administered in the morning ([3]; previous clinical trials, administered in the morning): sedation/somnolence observed
- tolerability when given in the evening ([3]; previous clinical trials, given in the evening): improved tolerability
